Results: patent US6579868B1, “Purine derivatives and adenosine A2 receptor antagonists serving as preventives/remedies for diabetes” (Eisai Co., Ltd., priority 1998, dated 2003)
Structures can show the parent of a compound that is named as a salt. Blank lines part the entries; values can stand above or below the molecule they belong to.

Tests used:
[1] = target: T1, Human adenosine A2b receptor (Homo sapiens, UniProt P29275); assay: Suppression of NECA-stimulated cAMP production in adenosine A2b receptor expressed CHOK1 cells; format: cell-based; details: NECA 30 nM
T1 construct: expressed in transfected cells; host or cells: CHOK1 cells
T1 sequence (P29275 1-332): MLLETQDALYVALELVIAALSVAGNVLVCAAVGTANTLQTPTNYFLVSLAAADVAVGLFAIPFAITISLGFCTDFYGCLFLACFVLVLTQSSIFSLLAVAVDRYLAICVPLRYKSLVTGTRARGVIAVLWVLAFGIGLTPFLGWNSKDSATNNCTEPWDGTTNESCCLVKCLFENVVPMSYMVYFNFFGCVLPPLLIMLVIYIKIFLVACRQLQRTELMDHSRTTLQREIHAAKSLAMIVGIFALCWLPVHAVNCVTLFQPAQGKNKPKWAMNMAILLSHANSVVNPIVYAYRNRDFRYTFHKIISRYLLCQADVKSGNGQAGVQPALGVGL
Experimental: Human adenosine A2b receptor cDNA was over-expressed in CHOK1 cells. […] Affinity of the test compound to the A2b receptor was evaluated in which the index used was the degree of suppression of the amount of cAMP produced by stimulation of NECA (30 nM) which was an adenosine agonist in the presence of the test compound. Thus, after washing with 2 ml/well of an incubation buffer (Krebs solution; pH7.4) twice, a pre-incubation was carried out at 0.5 ml/well for 30 minutes. […] After 15 minutes, the reaction was stopped by substituting 0.1N HCl (300 μl/well) for the reaction solution. Measurement of cAMP was carried out using an Amersham cAMP EIA Kit.
Calculation of the suppression rate of the test compound to the NECA-stimulated cAMP production was done by the following expression.
Inhibition Rate (%)=[1−{(cAMP amount in the presence of NECA and test compound-cAMP amount in the case of incubation buffer only)/(cAMP amount stimulated only by NECA-cAMP amount in the case of incubation buffer only)}]×100.
IC50 […]was calculated from the above.

[2] = system: spontaneous diabetic mice (KK-A^y/Ta Jcl); assay: Action to hyperglycemia of spontaneous diabetic mice (KK-A^y/Ta Jcl), single oral administration; format: in vivo, mouse
Experimental: Animals: Five male KK-A^y/Ta Jcl mice for each group (purchased from Nippon Clair)
Preparation and Administration of Test Compound: A test compound in a dose as shown in Table 2 was suspended in a 0.5% aqueous solution of methyl cellulose and was orally administered in a dose of 10 ml/kg.
Collection of Blood Samples and Determination of Blood Sugar: Blood was collected from tail vein immediately before administration of the test compound and also five hours after the administration and blood sugar was determined.
(§1) Method: Tail vein of a mouse was injured by a razor without an anesthetization to bleed slightly. The blood (15 μl) was collected and immediately mixed with 135 μl of a 0.6 M perchloric acid. Glucose in the supernatant obtained by a centrifugal separation (at 1500 g for 10 minutes at 4° C. using a cooling centrifuge GS-6KR of Beckmann) was determined by a Glucose CII Test Wako (Wako Pure Chemicals).
The result is shown in terms of “(% ratio of the blood sugar after 5 hours from the administration to the blood sugar before the administration)±(standard error)”. The data were subjected to a one-way layout analysis of variance and then subjected to a multiple comparison of a Dunnett type. The case where p<0.05 was judged to be that a significant difference was available.
Animals: Five male KK-A^y/Ta Jcl mice for each group (introduced from Nippon Clair)
Preparation and Administration of Test Compound: A test compound in a dose shown in Table 6 was suspended in a 0.5% aqueous solution of methyl cellulose and was orally administered in a dose of 10 ml/kg.
as §1, with “vein of mouse was” for “vein of a mouse was”
The result is shown in terms of “(% ratio of the blood sugar after 5 hours from the administration to the blood sugar before the administration)±(standard error)”. The data were subjected to a one-way layout analysis of variance and then subjected to a multiple comparison of Dunnett type. The case where p<0.05 was judged that a significant difference was available.

[3] = target: T2, Human adenosine A1 receptor (Homo sapiens, UniProt P30542); assay: Adenosine A1 receptor binding experiment (3H-CCPA); details: human A1 receptor expressed in CHOK1 membranes
T2 construct: expressed in transfected cells; host or cells: CHOK1 cells (membrane specimen)
T2 sequence (P30542 1-326): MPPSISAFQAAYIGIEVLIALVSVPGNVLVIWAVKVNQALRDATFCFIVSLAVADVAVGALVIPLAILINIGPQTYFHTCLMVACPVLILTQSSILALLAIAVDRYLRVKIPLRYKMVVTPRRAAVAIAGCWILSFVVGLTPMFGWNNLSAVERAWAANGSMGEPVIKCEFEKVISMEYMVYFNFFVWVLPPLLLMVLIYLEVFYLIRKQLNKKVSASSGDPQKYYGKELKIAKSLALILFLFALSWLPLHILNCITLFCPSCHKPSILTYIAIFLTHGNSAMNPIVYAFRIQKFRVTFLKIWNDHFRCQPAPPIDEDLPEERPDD
Experimental: Human adenosine A1 receptor cDNA was subjected to an over-expression in CHOK1 cells and its membrane specimen was suspended in an incubation buffer (20 mM HEPES, 10 mM MgCl2 and 100 mM NaCl; pH 7.4) to make the concentration 66.7 μg/ml. To 0.45 ml of this membrane specimen were added 0.025 ml of tritium-labeled chlorocyclopentyl adenosine (60 nM ^3H-CCPA; 30 Ci/mmol) and 0.025 ml of the compound to be tested. The solution of the compound to be tested was prepared in such a manner that, firstly, the compound was dissolved in DMSO to make 20 mM concentration and then successively diluted each 10-fold using an incubation buffer. The mixture was allowed to stand at 30° C. for 120 minutes, subjected to a quick suction on a glass fiber filter (GF/B; manufactured by Whatman) and immediately washed with 5 ml of ice-cooled 50mM Tris-HCl buffer twice. After that, the glass fiber filter was transferred to a vial bottle, a scintillator was added and the radioactivity on the filter was measured by a liquid scintillation counter. Calculation of the inhibition rate of the test compound to the receptor bond (^3H-CCPA) was carried out by the following expression and, based upon that, IC50 was calculated.
Inhibition Rate (%)=[1−{(Binding amount in the presence of drug-Non-specific binding amount)/(Total binding amount-Non-specific binding amount)}]×100
Total binding amount is a ^3H-CCPA binding radioactivity in the absence of the test compound.
Non-specific binding amount is a ^3H-CCPA binding radioactivity in the presence of 100 μM of RPIA.
Binding amount in the presence of drug is a ^3H-CCPA binding radioactivity in the presence of the test compound of various concentrations.
The inhibition constant (Ki value) in Table was calculated from Cheng-Prusoff's expression.

[4] = target: T3, adenosine A2a receptor (Homo sapiens, UniProt P29274); assay: Adenosine A2a receptor binding experiment (3H-CGS21680); details: A2a receptor membrane specimen
T3 construct: purchased Receptor Biology, Inc
Experimental: A membrane specimen prepared by an over-expression of adenosine A2a receptor was purchased from Receptor Biology, Inc. and adenosine A2a receptor binding experiments were carried out using that. […] To 0.45 ml of this membrane specimen were added 0.025 ml of tritium-labeled ^3H-CGS21680 (500 nM; 30 Ci/mmol) and 0.025 ml of the test compound. The solution of the test compound was prepared in such a manner that, firstly, the compound was dissolved in DMSO to make 20 mM concentration and then successively diluted each 10-fold using an incubation buffer. […] After that, the glass fiber filter was transferred to a vial bottle, a scintillator was added and the radioactivity on the filter was measured by a liquid scintillation counter. Calculation of the inhibition rate of the test compound to the receptor bond (^3H-CGS21680) of A2a was carried out by the following expression and, based upon that, IC50 was calculated. […]
Total binding amount is a ^3H-CGS21680 binding radioactivity in the absence of the test compound.
Non-specific binding amount is a ^3H-CGS21680 binding radioactivity in the presence of 100 μM of RPIA.
Binding amount in the presence of drug is a ^3H-CGS21680 binding radioactivity in the presence of the test compound of various concentrations.

[5] = Glucose tolerance test (impaired glucose tolerance); details: in vivo

T3 sequence (P29274 whole entry): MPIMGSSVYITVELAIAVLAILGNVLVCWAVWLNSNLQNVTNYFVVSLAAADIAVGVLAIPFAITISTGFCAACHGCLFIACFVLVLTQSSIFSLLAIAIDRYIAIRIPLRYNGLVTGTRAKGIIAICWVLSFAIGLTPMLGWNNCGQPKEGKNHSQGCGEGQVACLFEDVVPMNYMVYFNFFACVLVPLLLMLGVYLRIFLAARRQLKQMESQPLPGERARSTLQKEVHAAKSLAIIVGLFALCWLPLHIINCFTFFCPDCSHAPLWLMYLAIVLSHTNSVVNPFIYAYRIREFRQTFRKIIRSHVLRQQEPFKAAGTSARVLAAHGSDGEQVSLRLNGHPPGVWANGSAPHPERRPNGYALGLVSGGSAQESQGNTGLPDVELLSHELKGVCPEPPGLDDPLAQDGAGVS

IC50 [1]: 70 nM
Compound: Cn1c(-c2cccc(F)c2)nc2c(N)nc(C#CC3(O)CCCC3)nc21 [Compound B]

IC50 [1]: 100 nM
Compound: Fc1cccc(-c2nc3cccnc3n2-c2ccncc2)c1 [Compound C, 2-(3-Fluorophenyl)-(4-pyridyl)-3H-imidazo[4,5-b]pyridine Hydrochloride, reference compound]
% ratio of the blood sugar after 5 hours from the administration to the blood sugar before the administration ± standard error ([2]; Table 6-2, 30 mg/kg oral, solvent group 69.8 ± 2.3): 48.5 ± 3.4%

Ki [3]: 24 nM | Ki [4]: 2 nM
Compound: CCn1c(-c2cccc(F)c2)nc2c(N)nc(C#CC3(O)CCC3)nc21 [drawing 259]

IC50 [1]: 28 nM
Compound: CCn1c(-c2cccc(F)c2)nc2c(N)nc(C#CC3(O)CCC3)nc21 [Compound A]
% ratio of the blood sugar after 5 hours from the administration to the blood sugar before the administration ± standard error ([2]; Table 6-1, 10 mg/kg oral, administered in a form of sulfate, solvent group 72.4 ± 4.4): 47.8 ± 4.8%

Compound: O=C(/C=C/c1c(-c2ccccc2)nn2ccccc12)N1CCCC[C@@H]1CCO [FK453, reference compound]
glucose tolerance improving action in glucose tolerance test (in words) [5]: no glucose tolerance improving action was noted | hypoglycemic action in the present diabetic models (in words) ([2]; even at the dose of 100 mg/kg): no hypoglycemic action was noted

Ki [3]: 54 nM | Ki [4]: 750 nM
Compound: Fc1cccc(-c2nc3cccnc3n2-c2ccncc2)c1 [drawing 261]

IC50 [1]: 1360 nM
Compound: CCCn1c(=O)c2c(nc(/C=C/c3ccc(OC)c(OC)c3)n2C)n(CCC)c1=O [KF17837]
